The structures appear in SMILES notation. Active and inactive are the calls of the source.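 Rule for the calls: active = compounds giving half or more protection of infected cells from virus-caused growth loss, again on retest; inactive = the rest.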

As usually defined, the EC50 is the midpoint of the concentration-response curve. By IC50 is commonly meant the point on the concentration scale where inhibition reaches its midpoint. A low value points to inhibition by little substance.

This test concerns CEM cells HIV-1 protection, formazan growth assay. In words: NCI AIDS Antiviral Assay. Particulars: for IC50: measured here: growth of uninfected CEM cells. The gist of the method:
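Protection of CEM cells against HIV-1 was scored from cell growth (soluble formazan) across five concentrations, with parallel uninfected cells. Lack of protection may reflect toxicity.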

On to `CSc1nc(C)cc(Nc2ccc(O)c(CN3CCOCC3)c2)n1`, for which the EC50 is greater than 24 µM and the IC50 is greater than 24 µM. With `CCC(C#N)NCc1ccc(CNC(C#N)CC)cc1` (stereo not drawn), the EC50 was greater than 200 µM and the IC50 was greater than 200 µM. Turning to `O=C(O)c1c(-c2ccccc2)nn2c1ccc1ccccc12`, the EC50 was greater than 200 µM and the IC50 was greater than 100 µM.

For the molecule `O=C(/C=C/c1ccc(Cl)c(Cl)c1)c1ccc2ccccc2c1`, the EC50 is greater than 11.5 µM and the half-maximal inhibitory concentration (IC50) was greater than 11.5 µM. For `COC1OC(C(C)O)C2OC(C)(C)OC12` (stereo not drawn), the EC50 is greater than 200 µM and the IC50 was greater than 200 µM.

On to `CC(=O)Nc1ccc(SC#N)c2c(NC(C)=O)cccc12`, for which the outcome was inactive. As to `N#C/C(=C\NC(=S)N=Nc1c(O)[nH]c2ccccc12)c1nc2ccccc2s1`, the EC50 was greater than 200 µM and the IC50 was greater than 200 µM. As to `O=c1[nH]nc(Cc2ccccc2)n1/N=C/c1ccccc1Cl`, the EC50 was greater than 200 µM and the IC50 is greater than 200 µM. As for `COc1ccc(-n2cc3c(c2)C(=O)OC3=O)cc1OC`, the outcome was inactive.

Regarding `CC1(C)c2ccccc2C(=O)C1(Br)Cc1ccccc1` (stereo not drawn), the EC50 was greater than 200 µM and the IC50 was found to be 9.55 µM. The like results for `COc1ccc(/C=C/c2onc3c(=O)n(C)nc(-c4ccccc4)c23)cc1` were, in that order, greater than 20 µM and greater than 20 µM.

`O=c1c2c(c1=O)C1(SCCCS1)c1cc(Cl)ccc1O2`: the EC50 was greater than 200 µM and the IC50 is greater than 200 µM. Consider `COc1ccc(C2(OC)Oc3cc(OC)ccc3C(=O)C2(O)OC)cc1` (stereo not drawn), for which the EC50 is greater than 200 µM and the 50% inhibitory concentration (IC50) is 11 µM. As to `Cc1cc(Sc2cc(C)c(O)c(C(C)(C)C)c2)cc(C(C)(C)C)c1O`, the EC50 was greater than 200 µM and the IC50 turned out to be 15.8 µM. The matching figures for `C=CCC1(c2ccc(OC)cc2)C=CC(=O)CC1` (stereo not drawn): greater than 282 µM and 79.4 µM. With `O=C(Nc1ccc(S(=O)(=O)c2ccc(NS(=O)(=O)Cc3ccccc3[N+](=O)[O-])cc2)cc1)c1ccccc1SSc1ccccc1C(=O)Nc1ccc(S(=O)(=O)c2ccc(NS(=O)(=O)Cc3ccccc3[N+](=O)[O-])cc2)cc1`, the EC50 was 28.2 µM and the IC50 is greater than 200 µM. The like results for `CCOC(=O)c1[nH]cc(C)c1-c1c[nH]c2ccccc12` were, in that order, greater than 200 µM and 24.5 µM. The matching figures for `O=C(Cc1ccc(Cl)cc1)NC(NC(=O)Cc1ccc(Cl)cc1)C(Cl)(Cl)Cl`: greater than 200 µM and greater than 200 µM.

As for `NC(CO)C(=O)NCCS(=O)(=O)O` (stereo not drawn), the EC50 was greater than 100 µM and the IC50 was greater than 100 µM. Turning to `CCOC(=O)c1ccc(CSc2ccccc2C(=O)OCC)c([N+](=O)[O-])c1`, the EC50 was greater than 7.08 µM and the IC50 was greater than 7.08 µM. Turning to `c1ccc2c(c1)c1c(n2CCOCCN2CCCC2)CCCC1`, the EC50 is greater than 200 µM and the 50% inhibitory concentration (IC50) was determined as 9.55 µM. The matching figures for `O=C1NC(=O)C2C(=O)NC(=O)C1C2(c1ccccc1)c1cc[nH]c1` (stereo not drawn): greater than 22.4 µM and 16.6 µM. The matching figures for `NNC(=S)NNC(N)=O`: 58.9 µM and greater than 200 µM. The like results for `COc1ccccc1C1c2cc3c(cc2OC(N2CCOCC2)C1C)OCO3` (stereo not drawn) were, in that order, greater than 200 µM and 15.8 µM.

Take `O=S1c2ccccc2N=C(c2ccc3ccccc3c2)CC1c1ccccc1` (stereo not drawn): the EC50 is greater than 19.1 µM and the IC50 is greater than 19.1 µM.

As for `NC(=O)c1c2c(cc3c(=O)c4ccccc4[nH]c13)CCCC2`, the result was inactive. On the same count and under the same terms, the result for `O=c1ccccc2cccc(O)c12` reads “inactive”. For `COc1cc(Cl)cc(=O)c(O)c1OC`, the EC50 is greater than 437 µM and the IC50 is 20.9 µM. The like results for `Cc1nc(N)nc(N)c1N1CCN(c2ccc(N)cc2)CC1` were, in that order, greater than 200 µM and 2.82 µM.

`CN(C)CCC(O)(c1ccccc1)C(O)(CCN(C)C)c1ccccc1` (stereo not drawn): the EC50 was greater than 72.4 µM and the IC50 is greater than 72.4 µM.

In the case of `COc1ccc(/C=C2\NC(=S)NC2=O)cc1`, the EC50 is greater than 200 µM and the IC50 was determined as 151 µM.

Source of the values: PubChem BioAssay AID179 (DTP/NCI, 2004).
